Patent US20240374558A1, “PREPARATION OF PHENE[…] […] STEREOISOMERS THEREOF AND PRECURSORS THEREOF” (priority 2022, published 2024)
Structures can show the parent of a compound that is named as a salt.

What was measured:
Type in all cases: cell-based
Nav1.5 Late Current = target: T1, Nav1.5 Late Current (Homo sapiens, UniProt Q14524); assay: hNav1.5 Late Current Sodium Channel Assay, Qube APC; conditions: Antagonist mode; HEK-Nav1.5 (Late), 50 nM ATXII; test compound
T1 construct: host or cells: HEK-293
Procedure: (§1) Electrophysiological assays were conducted to profile three compounds ((R)-methylone, (S)-methylone, or racemic methylone) for activities on the ion channel targets specified below using the Qube electrophysiological platform. Where presented, IC50 values were determined by a non-linear, least squares regression analysis. Reference standards were run as an integral part of each assay to ensure the validity of the results obtained.
(§2) Ion Channels tested were Eurofins Panel Part Number: CPROFullQB2DR Voltage-Gated Sodium: HEK-Nav1.5 (Peak), HEK-Nav1.5 (Late, Antagonist) Voltage-Gated Potassium: HEK-Kv4.3/KChIP2, CHO-hERG, CHO-KCNQ1/minK Voltage-Gated Calcium: HEK-Cav1.2 Inward-Rectifying Voltage-Gated Potassium: HEK-Kir2.1.
(§3) Methods employed in this study have been developed and validated with reliability and reproducibility by Eurofins. Assays were performed under conditions below. [0217] hNavL.5 Sodium Channel Assay—Qube APC Onset and steady state block of peak Nay1.5 current is measured using a pulse pattern, repeated every 5 sec, consisting of a hyperpolarizing pulse to −120 mV for a 200 ms duration, depolarization to −15 mV amplitude for a 40 ms duration, followed by step to 40 mV for 200 ms and finally a 100 ms ramp (1.2 V/s) to a holding potential of −80 mV. Peak current is measured during the step to −15 mV. […] Onset and steady state block of hKv4.3 current is measured using a pulse pattern from −80 mV to 40 mV amplitude for a 110 ms duration, and finally a 100 ms ramp (1.2 V/s) to −80 mV. […] [0220] hNav1.5 Late Current Sodium Channel Assay—Qube APC Onset and steady state block of Late Nay1.5 current is measured using a pulse pattern, repeated every 5 sec, consisting of a hyperpolarizing pulse to −120 mV for a 200 ms duration, depolarization to −15 mV amplitude for a 40 ms duration, followed by step to 40 mV for 200 ms and finally a 100 ms ramp (1.2 V/s) to a holding potential of −80 mV. Late current is measured as charge current elicited during the ramp with 50 nM ATXII.

Kc4.3/ChIP2 = target: T2, Kc4.3/ChIP2 (Homo sapiens, UniProt Q9UK17); assay: hKv4.3/hKChIP2 Potassium Channel Assay, Qube APC; conditions: Antagonist mode; HEK-Kv4.3/KChIP2; test compound
T2 construct: host or cells: HEK
T2 sequence (Q9UK17 1-655): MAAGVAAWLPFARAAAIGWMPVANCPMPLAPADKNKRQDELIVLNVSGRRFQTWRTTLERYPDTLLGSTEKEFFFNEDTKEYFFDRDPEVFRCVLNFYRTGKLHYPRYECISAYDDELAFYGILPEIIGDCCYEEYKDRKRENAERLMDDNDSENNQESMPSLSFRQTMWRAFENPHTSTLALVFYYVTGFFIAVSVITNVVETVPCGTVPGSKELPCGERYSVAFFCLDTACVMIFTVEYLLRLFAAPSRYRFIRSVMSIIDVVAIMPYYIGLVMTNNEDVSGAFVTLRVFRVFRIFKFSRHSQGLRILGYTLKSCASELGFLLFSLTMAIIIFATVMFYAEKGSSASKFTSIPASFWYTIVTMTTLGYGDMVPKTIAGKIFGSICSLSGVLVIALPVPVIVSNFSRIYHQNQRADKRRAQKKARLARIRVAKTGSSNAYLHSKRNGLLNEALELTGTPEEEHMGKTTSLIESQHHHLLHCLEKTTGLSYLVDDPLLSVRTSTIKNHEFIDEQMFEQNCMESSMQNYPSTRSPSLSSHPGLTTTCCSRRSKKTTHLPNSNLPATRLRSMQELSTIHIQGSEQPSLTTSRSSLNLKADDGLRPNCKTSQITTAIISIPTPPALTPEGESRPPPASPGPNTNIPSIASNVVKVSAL
T2 sequence (Q9NS61 1-270 partner): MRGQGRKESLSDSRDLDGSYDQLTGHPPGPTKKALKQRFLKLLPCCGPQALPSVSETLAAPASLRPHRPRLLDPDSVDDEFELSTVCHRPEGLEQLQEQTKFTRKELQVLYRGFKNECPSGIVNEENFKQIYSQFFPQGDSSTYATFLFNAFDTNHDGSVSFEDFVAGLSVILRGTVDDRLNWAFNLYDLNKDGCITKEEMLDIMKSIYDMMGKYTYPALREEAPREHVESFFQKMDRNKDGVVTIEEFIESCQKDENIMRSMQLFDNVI
Procedure: as §1, §2, §3

Cav1.2 = target: T3, Cav1.2 (Homo sapiens, UniProt Q13936); assay: hCav1.2 (L-type) Calcium Channel Assay, Qube APC; conditions: Antagonist mode; HEK-Cav1.2; test compound
T3 construct: host or cells: HEK293
T3 sequence (Q13936 whole entry): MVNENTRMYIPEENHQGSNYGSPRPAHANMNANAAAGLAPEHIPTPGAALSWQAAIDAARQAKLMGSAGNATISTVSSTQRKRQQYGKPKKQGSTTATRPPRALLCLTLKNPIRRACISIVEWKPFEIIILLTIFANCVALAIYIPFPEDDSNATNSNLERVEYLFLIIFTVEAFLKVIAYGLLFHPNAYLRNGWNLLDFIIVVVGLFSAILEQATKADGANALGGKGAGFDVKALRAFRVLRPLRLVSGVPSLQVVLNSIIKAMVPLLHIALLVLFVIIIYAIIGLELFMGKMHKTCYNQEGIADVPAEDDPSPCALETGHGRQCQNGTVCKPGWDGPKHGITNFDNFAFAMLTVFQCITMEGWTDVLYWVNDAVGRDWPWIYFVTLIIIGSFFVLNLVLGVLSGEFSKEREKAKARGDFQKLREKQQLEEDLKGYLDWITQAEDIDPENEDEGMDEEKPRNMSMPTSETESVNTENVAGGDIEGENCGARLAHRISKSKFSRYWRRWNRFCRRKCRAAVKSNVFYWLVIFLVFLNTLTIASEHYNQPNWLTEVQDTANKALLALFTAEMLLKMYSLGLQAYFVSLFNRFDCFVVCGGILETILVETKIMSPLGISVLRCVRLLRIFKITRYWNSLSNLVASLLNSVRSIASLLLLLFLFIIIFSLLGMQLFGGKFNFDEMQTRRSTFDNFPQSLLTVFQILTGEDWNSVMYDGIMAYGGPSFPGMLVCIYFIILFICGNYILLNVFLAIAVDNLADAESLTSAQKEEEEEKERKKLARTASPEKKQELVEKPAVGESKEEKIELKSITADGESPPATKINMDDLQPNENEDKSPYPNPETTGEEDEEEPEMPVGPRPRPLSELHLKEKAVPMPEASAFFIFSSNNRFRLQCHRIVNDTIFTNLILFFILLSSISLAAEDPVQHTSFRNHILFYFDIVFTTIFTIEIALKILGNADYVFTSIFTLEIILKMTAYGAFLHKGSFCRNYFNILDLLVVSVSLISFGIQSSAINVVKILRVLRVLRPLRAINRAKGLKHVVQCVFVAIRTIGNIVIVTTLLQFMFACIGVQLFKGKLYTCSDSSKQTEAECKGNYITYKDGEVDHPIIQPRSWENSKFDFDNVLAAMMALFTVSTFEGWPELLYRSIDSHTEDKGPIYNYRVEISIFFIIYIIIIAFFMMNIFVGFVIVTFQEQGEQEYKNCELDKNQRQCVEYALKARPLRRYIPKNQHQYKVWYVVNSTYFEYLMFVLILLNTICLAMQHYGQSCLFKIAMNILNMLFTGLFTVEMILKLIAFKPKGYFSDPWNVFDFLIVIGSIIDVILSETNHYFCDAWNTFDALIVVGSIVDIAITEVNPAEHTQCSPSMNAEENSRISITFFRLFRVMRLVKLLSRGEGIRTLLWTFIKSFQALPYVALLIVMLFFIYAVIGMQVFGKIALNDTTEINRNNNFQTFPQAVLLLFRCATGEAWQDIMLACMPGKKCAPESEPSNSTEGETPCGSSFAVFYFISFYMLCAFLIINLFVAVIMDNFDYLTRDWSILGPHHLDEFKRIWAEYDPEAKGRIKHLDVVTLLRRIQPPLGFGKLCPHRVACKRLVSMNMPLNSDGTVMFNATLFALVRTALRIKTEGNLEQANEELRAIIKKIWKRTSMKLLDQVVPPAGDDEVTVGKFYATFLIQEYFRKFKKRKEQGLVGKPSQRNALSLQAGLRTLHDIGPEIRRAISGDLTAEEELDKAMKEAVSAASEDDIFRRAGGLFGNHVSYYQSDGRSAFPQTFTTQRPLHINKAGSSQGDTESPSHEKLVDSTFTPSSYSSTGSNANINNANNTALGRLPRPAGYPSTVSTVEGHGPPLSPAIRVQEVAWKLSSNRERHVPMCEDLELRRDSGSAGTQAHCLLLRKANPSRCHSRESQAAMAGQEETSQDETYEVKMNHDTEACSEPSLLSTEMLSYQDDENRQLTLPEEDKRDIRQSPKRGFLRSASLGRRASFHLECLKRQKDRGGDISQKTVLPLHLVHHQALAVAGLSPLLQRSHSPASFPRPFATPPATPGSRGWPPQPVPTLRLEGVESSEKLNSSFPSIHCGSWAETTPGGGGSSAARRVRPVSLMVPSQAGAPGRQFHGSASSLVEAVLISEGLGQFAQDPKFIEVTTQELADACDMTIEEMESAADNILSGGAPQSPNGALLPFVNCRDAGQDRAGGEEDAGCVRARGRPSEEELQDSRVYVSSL
T3 sequence (Q08289 1-605 isoform Q08289-2 partner): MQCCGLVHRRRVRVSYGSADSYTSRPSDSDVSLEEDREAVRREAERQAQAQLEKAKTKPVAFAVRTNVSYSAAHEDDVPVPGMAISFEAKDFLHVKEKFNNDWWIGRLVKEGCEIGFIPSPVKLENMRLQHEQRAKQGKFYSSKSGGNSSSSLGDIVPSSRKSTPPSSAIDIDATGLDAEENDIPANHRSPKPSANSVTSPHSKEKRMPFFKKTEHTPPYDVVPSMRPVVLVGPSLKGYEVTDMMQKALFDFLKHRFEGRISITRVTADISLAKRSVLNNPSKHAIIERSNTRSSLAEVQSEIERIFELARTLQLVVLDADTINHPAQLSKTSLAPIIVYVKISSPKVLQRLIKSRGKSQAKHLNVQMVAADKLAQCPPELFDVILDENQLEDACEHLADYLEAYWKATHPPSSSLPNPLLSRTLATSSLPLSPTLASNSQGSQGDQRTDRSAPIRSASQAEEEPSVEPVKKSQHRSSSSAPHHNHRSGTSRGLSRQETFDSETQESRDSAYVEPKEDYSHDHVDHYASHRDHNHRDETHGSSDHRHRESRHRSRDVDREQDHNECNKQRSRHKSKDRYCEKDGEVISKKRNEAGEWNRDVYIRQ
T3 sequence (P54289 25-956 partner limits assumed): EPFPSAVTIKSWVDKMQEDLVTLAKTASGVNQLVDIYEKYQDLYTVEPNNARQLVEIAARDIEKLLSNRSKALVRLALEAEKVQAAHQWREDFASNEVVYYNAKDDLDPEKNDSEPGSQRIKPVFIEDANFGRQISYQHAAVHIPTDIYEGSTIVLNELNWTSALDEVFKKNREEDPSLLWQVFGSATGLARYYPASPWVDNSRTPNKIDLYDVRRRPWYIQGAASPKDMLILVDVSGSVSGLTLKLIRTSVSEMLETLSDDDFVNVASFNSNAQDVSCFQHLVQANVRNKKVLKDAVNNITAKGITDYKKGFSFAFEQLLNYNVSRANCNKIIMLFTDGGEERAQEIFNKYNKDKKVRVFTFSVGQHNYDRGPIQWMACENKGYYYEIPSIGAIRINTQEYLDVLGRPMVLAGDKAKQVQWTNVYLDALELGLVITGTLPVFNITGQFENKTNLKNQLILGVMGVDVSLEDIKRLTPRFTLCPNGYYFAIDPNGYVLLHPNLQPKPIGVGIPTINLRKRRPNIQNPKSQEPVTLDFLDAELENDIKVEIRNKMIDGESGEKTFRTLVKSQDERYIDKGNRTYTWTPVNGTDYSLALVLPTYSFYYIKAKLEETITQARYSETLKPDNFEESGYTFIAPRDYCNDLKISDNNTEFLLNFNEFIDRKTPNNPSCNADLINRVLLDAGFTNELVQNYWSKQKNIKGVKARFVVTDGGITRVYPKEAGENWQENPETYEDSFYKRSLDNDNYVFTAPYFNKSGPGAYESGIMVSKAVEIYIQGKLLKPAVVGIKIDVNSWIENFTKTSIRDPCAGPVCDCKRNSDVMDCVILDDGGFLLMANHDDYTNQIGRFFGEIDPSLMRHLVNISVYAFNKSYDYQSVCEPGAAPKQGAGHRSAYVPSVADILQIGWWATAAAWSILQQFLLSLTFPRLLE
T3 sequence (P54289 957-1103 partner limits assumed): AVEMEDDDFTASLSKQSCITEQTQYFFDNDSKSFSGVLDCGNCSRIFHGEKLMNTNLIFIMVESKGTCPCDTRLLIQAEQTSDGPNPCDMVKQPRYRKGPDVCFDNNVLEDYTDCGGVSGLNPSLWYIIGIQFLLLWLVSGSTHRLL
Procedure: Where presented, IC50 values were determined by a non-linear, least squares regression analysis.
Recombinant HEK-293 cells stably transfected with human NavL.5 cDNA, recombinant HEK293 cell line expressing the human Cavl.2 (L-type voltage gated calcium channel, hCavl.2 alC/02a/a281, and recombinant CHO-K1 cells stably transfected with human hERG cDNA were used separately in each of these assays.
as §2
Methods employed in this study have been developed and validated with reliability and reproducibility by Eurofins. Assays were performed under conditions below. […] Peak current is measured during the step to −15 mV. […] Onset and steady state block of hKv4.3 current is measured using a pulse pattern from −80 mV to 40 mV amplitude for a 110 ms duration, and finally a 100 ms ramp (1.2 V/s) to −80 mV. This paradigm is delivered once every 5s to monitor the current amplitude. […] Cavl.2 currents are evoked by a 50 ms pulse to −100 mV followed by a 200 ms pulse to +20 mV before returning to the holding potential of −90 mV. This paradigm is delivered three times every 60s to monitor the current amplitude. [0220] hNav1.5 Late Current Sodium Channel Assay—Qube APC Onset and steady state block of Late Nay1.5 current is measured using a pulse pattern, repeated every 5 sec, consisting of a hyperpolarizing pulse to −120 mV for a 200 ms duration, depolarization to −15 mV amplitude for a 40 ms duration, followed by step to 40 mV for 200 ms and finally a 100 ms ramp (1.2 V/s) to a holding potential of −80 mV. Late current is measured as charge current elicited during the ramp with 50 nM ATXII.

Structure (SMILES)	Estimated IC50 (Nav1.5 Late Current)	Estimated IC50 (Kc4.3/ChIP2)	Estimated IC50 (Cav1.2)
CN[C@H](C)C(=O)c1ccc2c(c1)OCO2 [(R)-methylone]	N/C (N/C indicates observed mean inhibition was <25%)	N/C (N/C indicates observed mean inhibition was <25%)	N/C (N/C indicates observed mean inhibition was <25%)
CN[C@@H](C)C(=O)c1ccc2c(c1)OCO2 [(S)-methylone]	N/C (N/C indicates observed mean inhibition was <25%)	N/C (N/C indicates observed mean inhibition was <25%)	N/C (N/C indicates observed mean inhibition was <25%)
CNC(C)C(=O)c1ccc2c(c1)OCO2 (stereo not drawn) [Methylone HCl, methylone HCl]	N/C (N/C indicates observed mean inhibition was <25%)	N/C (N/C indicates observed mean inhibition was <25%)	N/C (N/C indicates observed mean inhibition was <25%)
